# Results reported in ChEMBL document CHEMBL3608237, “Novel inhibitor against Malassezia globosa LIP1 (SMG1), a potential anti-dandruff target” (Bioorg Med Chem Lett, 2015).
# pIC50: −log10 of the molar value. Active and inactive are the calls of the source. No cut-off for these calls is given here.
# Experiments:
# [1] = molecular target: T1, Secreted mono- and diacylglycerol lipase LIP1 (Malassezia globosa (strain ATCC MYA-4612 / CBS 7966)(Dandruff-associated fungus), UniProt A8PUY1); assay: Inhibition of Malassezia globosa CBS 7966 LIP1 using pNPC substrate
# T1 sequence (A8PUY1 whole entry): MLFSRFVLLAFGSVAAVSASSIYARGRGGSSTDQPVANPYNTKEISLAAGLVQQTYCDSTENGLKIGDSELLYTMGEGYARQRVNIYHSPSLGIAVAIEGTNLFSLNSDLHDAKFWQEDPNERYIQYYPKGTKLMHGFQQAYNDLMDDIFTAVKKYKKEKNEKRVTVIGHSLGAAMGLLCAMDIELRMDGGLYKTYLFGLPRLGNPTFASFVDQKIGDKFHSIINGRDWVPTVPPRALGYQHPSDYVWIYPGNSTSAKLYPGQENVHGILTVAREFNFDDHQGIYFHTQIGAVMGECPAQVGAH
# [2] = molecular target: T1, Secreted mono- and diacylglycerol lipase LIP1; assay: Inhibition of Malassezia globosa CBS 7966 LIP1 using pNPA substrate
# [3] = molecular target: T1, Secreted mono- and diacylglycerol lipase LIP1; assay: Inhibition of Malassezia globosa CBS 7966 LIP1 incubated for 1 hr using monoolein substrate
# [4] = molecular target: T2, Secreted mono- and diacylglycerol lipase LIP1 (Malassezia globosa (strain ATCC MYA-4612 / CBS 7966)(Dandruff-associated fungus)) (UniProt A8PUY1); assay: Competitive inhibition of Malassezia globosa CBS 7966 LIP1 using pNPA substrate by Lineweaver-Burk plot method
# T2 sequence (whole entry): T1 sequence (A8PUY1 whole entry)
Compound,pIC50 [1],pIC50 [2],pIC50 [3],inhibition [4]
O=C1c2ccccc2C(=O)N1CCSC(=S)N1CCCCCC1,4.20,–,–,–
O=C1c2ccccc2CN1CCSC(=S)N1CCOCC1,< 3.70,–,–,–
O=C1c2ccccc2C(=O)N1CCSC(=S)N1CCOCC1,< 3.70,–,–,–
O=C1c2ccccc2CN1CCSC(=S)N1CCCCCC1,4.61,4.70,6.72,Dose-dependent effect
Cc1ccc(C(=O)Oc2ccc3ccc(O)cc3c2)cc1,–,4.09,–,Active
O=C1c2ccccc2CN1CCSC(=S)N1CCCC1,4.64,–,–,–
O=C1c2ccccc2C(=O)N1CCSC(=S)N1CCCC1,< 3.70,–,–,–
O=C(NCCCCCCNC(=O)ON=C1CCCCC1)ON=C1CCCCC1,–,4.12,–,Active
O=C(O)c1ccc(=S)n(CC(=O)c2ccccc2)c1,–,4.01,–,Active
